Columns and labels:
[1] = target: Sigma non-opioid intracellular receptor 1 (Homo sapiens, UniProt Q99720); experiment: DRUGMATRIX: Sigma1 radioligand binding (ligand: [3H] Haloperidol); assay type: cell membranes, Jurkat, Membrane; details: jurkat; Not Active = under 50% inhibition at 10 µM
[2] = DRUGMATRIX: Sodium/nucleoside co-transporter radioligand binding (ligand: nitrobenzylthioinosine); assay type: cell membranes, Cavia porcellus, Dunkin-Hartley, Cerebral cortex, Membrane; details: Not Active = under 50% inhibition at 10 µM
[3] = target: Beta-1 adrenergic receptor (Homo sapiens, UniProt P08588); experiment: DRUGMATRIX: Adrenergic beta1 radioligand binding (ligand: [125I] Cyanopindolol); assay type: cell membranes, CHO-K1, Membrane; details: cho-k1; Not Active = under 50% inhibition at 10 µM
Chain of Beta-1 adrenergic receptor (P08588 whole entry): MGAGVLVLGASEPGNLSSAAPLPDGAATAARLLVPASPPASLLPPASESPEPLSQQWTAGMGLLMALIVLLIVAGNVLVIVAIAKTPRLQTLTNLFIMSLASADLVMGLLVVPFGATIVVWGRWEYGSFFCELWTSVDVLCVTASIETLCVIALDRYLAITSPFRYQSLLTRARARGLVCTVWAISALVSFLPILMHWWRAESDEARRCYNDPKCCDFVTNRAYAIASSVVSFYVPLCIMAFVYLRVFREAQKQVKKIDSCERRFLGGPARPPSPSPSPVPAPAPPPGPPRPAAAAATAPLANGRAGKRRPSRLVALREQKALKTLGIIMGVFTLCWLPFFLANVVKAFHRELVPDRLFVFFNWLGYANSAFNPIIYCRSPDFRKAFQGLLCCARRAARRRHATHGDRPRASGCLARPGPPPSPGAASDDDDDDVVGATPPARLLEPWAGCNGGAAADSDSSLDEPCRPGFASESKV

[4] = target: Mitogen-activated protein kinase 3 (Homo sapiens, UniProt P27361); experiment: DRUGMATRIX: Protein Serine/Threonine Kinase, ERK1 enzyme inhibition (substrate: Myelin Basic Protein); design: species or system Escherichia coli; details: Not Active = under 50% inhibition at 10 µM
Chain of Mitogen-activated protein kinase 3 (P27361 whole entry): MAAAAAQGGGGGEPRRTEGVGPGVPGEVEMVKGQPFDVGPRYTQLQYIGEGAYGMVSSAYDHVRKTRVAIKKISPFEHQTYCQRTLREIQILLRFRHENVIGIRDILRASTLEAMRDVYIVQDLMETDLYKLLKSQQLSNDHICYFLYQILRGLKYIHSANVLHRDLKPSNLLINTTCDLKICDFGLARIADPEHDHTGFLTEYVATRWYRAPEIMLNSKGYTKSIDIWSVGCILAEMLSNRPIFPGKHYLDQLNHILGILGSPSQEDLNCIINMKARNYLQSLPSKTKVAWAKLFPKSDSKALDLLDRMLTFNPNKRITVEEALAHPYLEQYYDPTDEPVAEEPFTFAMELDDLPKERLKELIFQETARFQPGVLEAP

[5] = DRUGMATRIX: Tumor Necrosis Factor (TNF), Non-Selective radioligand binding (ligand: [125I] TNF-alpha); assay type: cell membranes, Membrane; details: u-937; Not Active = under 50% inhibition at 10 µM
[6] = target: Protein kinase C alpha type (Homo sapiens, UniProt P17252); assay type: cell-based; details: sf9;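 also: inhibition of PKCalpha kinase activity measured in an enzyme assay with histone as the phosphorylation substrate; in other assays of this panel Not Active means under 50% inhibition at 10 µM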
[7] = target: T1, 5-hydroxytryptamine receptor 2C (Homo sapiens, UniProt P28335); experiment: DRUGMATRIX: Serotonin (5-Hydroxytryptamine) 5-HT2C radioligand binding (ligand: [3H] Mesulergine); assay type: cell membranes, CHO-K1, Membrane; details: cho-k1; Not Active = under 50% inhibition at 10 µM
T1 sequence (P28335 whole entry): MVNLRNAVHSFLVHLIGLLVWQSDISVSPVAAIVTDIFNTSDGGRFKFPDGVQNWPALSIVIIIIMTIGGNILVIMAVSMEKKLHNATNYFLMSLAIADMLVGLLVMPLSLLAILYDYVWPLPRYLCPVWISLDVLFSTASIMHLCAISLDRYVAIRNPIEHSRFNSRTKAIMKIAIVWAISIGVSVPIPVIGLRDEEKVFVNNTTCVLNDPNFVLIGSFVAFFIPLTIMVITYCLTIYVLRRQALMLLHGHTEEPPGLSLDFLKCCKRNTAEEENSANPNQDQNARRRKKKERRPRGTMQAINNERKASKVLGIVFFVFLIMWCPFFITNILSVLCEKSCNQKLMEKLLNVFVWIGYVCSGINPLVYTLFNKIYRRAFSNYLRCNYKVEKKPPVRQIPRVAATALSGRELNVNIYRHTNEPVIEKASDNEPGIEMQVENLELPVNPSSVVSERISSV

D(4) dopamine receptor = target: T2, D(4) dopamine receptor (Homo sapiens, UniProt P21917); experiment: DRUGMATRIX: Dopamine D4.2 radioligand binding (ligand: [3H] Spiperone); assay type: cell membranes, Membrane; details: cho-k1; Not Active = under 50% inhibition at 10 µM
T2 sequence (P21917 whole entry): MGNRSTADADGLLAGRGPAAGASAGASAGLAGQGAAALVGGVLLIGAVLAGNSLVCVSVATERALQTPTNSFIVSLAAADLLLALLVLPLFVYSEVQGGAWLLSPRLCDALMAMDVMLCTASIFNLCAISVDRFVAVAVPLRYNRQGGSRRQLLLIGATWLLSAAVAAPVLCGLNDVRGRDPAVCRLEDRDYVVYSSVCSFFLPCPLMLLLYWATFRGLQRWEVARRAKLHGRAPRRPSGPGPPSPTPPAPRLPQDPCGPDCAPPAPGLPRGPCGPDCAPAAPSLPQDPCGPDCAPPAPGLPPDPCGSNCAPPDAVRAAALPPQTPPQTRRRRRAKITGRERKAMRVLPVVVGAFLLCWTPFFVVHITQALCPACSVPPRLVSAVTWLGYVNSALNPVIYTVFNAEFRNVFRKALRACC

Chain of Sigma non-opioid intracellular receptor 1 (Q99720 whole entry): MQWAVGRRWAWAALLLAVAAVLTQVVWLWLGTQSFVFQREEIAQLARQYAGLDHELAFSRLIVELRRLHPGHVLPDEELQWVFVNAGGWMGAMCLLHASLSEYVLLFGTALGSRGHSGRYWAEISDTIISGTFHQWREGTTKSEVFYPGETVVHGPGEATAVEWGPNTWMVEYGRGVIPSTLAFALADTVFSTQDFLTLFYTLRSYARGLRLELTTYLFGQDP

O=C(N[C@H](CO)[C@H](O)c1ccc([N+](=O)[O-])cc1)C(Cl)Cl [CHLORAMPHENICOL]
Not Active: IC50 [1] | IC50 [2] | Ki [2] | IC50 [3] | IC50 [4] | IC50 [5] | Ki [5] | IC50 [6] | IC50 [7] | IC50 (D(4) dopamine receptor)

Cn1c(=O)c2c(ncn2CC2OCCO2)n(C)c1=O [DOXOFYLLINE]
Not Active: IC50 [1] | IC50 [2] | Ki [2] | IC50 [3] | IC50 [4] | IC50 [5] | Ki [5] | IC50 [6] | IC50 [7] | IC50 (D(4) dopamine receptor)

CCC1=C[C@@H]2CN(C1)Cc1c([nH]c3ccccc13)[C@@](C(=O)OC)(c1cc3c(cc1OC)N(C)[C@H]1[C@@](O)(C(=O)OC)[C@H](OC(C)=O)[C@]4(CC)C=CCN5CC[C@]31[C@@H]54)C2 [VINORELBINE]
Not Active: IC50 [1] | IC50 [2] | Ki [2] | IC50 [3] | IC50 [4] | IC50 [5] | Ki [5] | IC50 [6] | IC50 [7] | IC50 (D(4) dopamine receptor)

CC(C(=O)O)c1cccc(C(=O)c2ccccc2)c1 (stereo not given) [KETOPROFEN]
Not Active: IC50 [1] | IC50 [2] | Ki [2] | IC50 [3] | IC50 [4] | IC50 [5] | Ki [5] | IC50 [6] | IC50 [7] | IC50 (D(4) dopamine receptor)

O=c1ccc2ccccc2o1 [COUMARIN]
Not Active: IC50 [1] | IC50 [2] | Ki [2] | IC50 [3] | IC50 [4] | IC50 [5] | Ki [5] | IC50 [6] | IC50 [7] | IC50 (D(4) dopamine receptor)

CC1(C)O[C@@H]2C[C@H]3[C@@H]4C[C@H](F)C5=CC(=O)C=C[C@]5(C)[C@H]4[C@@H](O)C[C@]3(C)[C@]2(C(=O)CO)O1 [FLUNISOLIDE]
Not Active: IC50 [1] | IC50 [2] | Ki [2] | IC50 [3] | IC50 [4] | IC50 [5] | Ki [5] | IC50 [6] | IC50 [7] | IC50 (D(4) dopamine receptor)

CC1(C)O[C@@H]2C[C@H]3[C@@H]4C[C@H](F)C5=CC(=O)C=C[C@]5(C)[C@@]4(F)[C@@H](O)C[C@]3(C)[C@]2(C(=O)CO)O1 [FLUOCINOLONE ACETONIDE]
Not Active: IC50 [1] | IC50 [2] | Ki [2] | IC50 [3] | IC50 [4] | IC50 [5] | Ki [5] | IC50 [6] | IC50 [7] | IC50 (D(4) dopamine receptor)

N=C(Nc1ccccc1)Nc1ccccc1
Not Active: IC50 [2] | Ki [2] | IC50 [3] | IC50 [4] | IC50 [5] | Ki [5] | IC50 [6] | IC50 [7] | IC50 (D(4) dopamine receptor)

CC[C@@H](CO)NCCN[C@@H](CC)CO [ETHAMBUTOL]
Not Active: IC50 [1] | IC50 [2] | Ki [2] | IC50 [3] | IC50 [4] | IC50 [5] | Ki [5] | IC50 [6] | IC50 [7] | IC50 (D(4) dopamine receptor)

CN1C(=O)COc2c(C(=O)NC3CN4CCC3CC4)cc(Cl)cc21 (stereo not given) [AZASETRON]
Not Active: IC50 [1] | IC50 [2] | Ki [2] | IC50 [3] | IC50 [4] | IC50 [5] | Ki [5] | IC50 [6] | IC50 [7] | IC50 (D(4) dopamine receptor)

O=NN(CCCl)C(=O)NCCCl [CARMUSTINE]
Not Active: IC50 [1] | IC50 [2] | Ki [2] | IC50 [3] | IC50 [4] | IC50 [5] | Ki [5] | IC50 [6] | IC50 [7] | IC50 (D(4) dopamine receptor)

O=C(C1CCCCC1)N1CC(=O)N2CCc3ccccc3C2C1 (stereo not given) [PRAZIQUANTEL]
Not Active: IC50 [2] | Ki [2] | IC50 [3] | IC50 [4] | IC50 [5] | Ki [5] | IC50 [6] | IC50 [7] | IC50 (D(4) dopamine receptor)

C[C@]12CC[C@@H]3c4ccc(OC(=O)c5ccccc5)cc4CC[C@H]3[C@@H]1CC[C@@H]2O [ESTRADIOL BENZOATE]
Not Active: IC50 [1] | IC50 [2] | Ki [2] | IC50 [3] | IC50 [4] | IC50 [5] | Ki [5] | IC50 [6] | IC50 [7] | IC50 (D(4) dopamine receptor)

C[N+](C)(C)CCO.[Cl-] [CHOLINE CHLORIDE]
Not Active: IC50 [1] | IC50 [2] | Ki [2] | IC50 [3] | IC50 [4] | IC50 [5] | Ki [5] | IC50 [6] | IC50 [7] | IC50 (D(4) dopamine receptor)

NC(=O)NO [HYDROXYUREA]
Not Active: IC50 [1] | IC50 [2] | Ki [2] | IC50 [3] | IC50 [4] | IC50 [5] | Ki [5] | IC50 [6] | IC50 [7] | IC50 (D(4) dopamine receptor)

C[C@@]12C(=O)OC(=O)[C@]1(C)[C@H]1CC[C@@H]2O1 [CANTHARIDIN]
Not Active: IC50 [1] | IC50 [2] | Ki [2] | IC50 [3] | IC50 [4] | IC50 [5] | Ki [5] | IC50 [6] | IC50 [7] | IC50 (D(4) dopamine receptor)

O=S(=O)([O-])CCS.[Na+] [MESNA]
Not Active: IC50 [1] | IC50 [2] | Ki [2] | IC50 [3] | IC50 [4] | IC50 [5] | Ki [5] | IC50 [6] | IC50 [7] | IC50 (D(4) dopamine receptor)

CCN[C@@H]1C[C@H](N)[C@@H](O[C@H]2OC(CN)=CC[C@H]2N)[C@H](O)[C@H]1O[C@H]1OC[C@](C)(O)[C@H](NC)[C@H]1O [NETILMICIN]
Not Active: IC50 [1] | IC50 [2] | Ki [2] | IC50 [3] | IC50 [4] | IC50 [5] | Ki [5] | IC50 [6] | IC50 [7] | IC50 (D(4) dopamine receptor)

C/C=C/C[C@@H](C)[C@@H](O)[C@H]1C(=O)N[C@@H](CC)C(=O)N(C)CC(=O)N(C)[C@@H](CC(C)C)C(=O)N[C@@H](C(C)C)C(=O)N(C)[C@@H](CC(C)C)C(=O)N[C@@H](C)C(=O)N[C@H](C)C(=O)N(C)[C@@H](CC(C)C)C(=O)N(C)[C@@H](CC(C)C)C(=O)N(C)[C@@H](C(C)C)C(=O)N1C [CYCLOSPORINE]
Not Active: IC50 [1] | IC50 [2] | Ki [2] | IC50 [3] | IC50 [4] | IC50 [5] | Ki [5] | IC50 [6] | IC50 [7] | IC50 (D(4) dopamine receptor)

CCOC(=O)C(C)(C)Oc1ccc(Cl)cc1 [CLOFIBRATE]
Not Active: IC50 [1] | IC50 [2] | Ki [2] | IC50 [3] | IC50 [4] | IC50 [5] | Ki [5] | IC50 [6] | IC50 [7] | IC50 (D(4) dopamine receptor)

CCCC(=O)Nc1ccc(OCC(O)CNC(C)C)c(C(C)=O)c1 (stereo not given) [ACEBUTOLOL]
Not Active: IC50 [1] | IC50 [2] | Ki [2] | IC50 [4] | IC50 [5] | Ki [5] | IC50 [6] | IC50 [7] | IC50 (D(4) dopamine receptor)

O=C1CC2(CCCC2)CC(=O)N1CCCCN1CCN(c2ncccn2)CC1 [BUSPIRONE]
Not Active: IC50 [2] | Ki [2] | IC50 [3] | IC50 [4] | IC50 [5] | Ki [5] | IC50 [6] | IC50 [7] | IC50 (D(4) dopamine receptor)

CN(C)c1ccc(C(=C2C=CC(=[N+](C)C)C=C2)c2ccc(N(C)C)cc2)cc1.[Cl-] [GENTIAN VIOLET]
Not Active: IC50 [1] | IC50 [2] | Ki [2] | IC50 [4] | IC50 [5] | Ki [5] | IC50 [6] | IC50 [7] | IC50 (D(4) dopamine receptor)
